{
  "source": "ChEMBL document CHEMBL1201862",
  "about": "“PubChem BioAssay data set” (2004)",
  "key": {"[1]": {"assay": "Late stage counterscreen results from the probe development effort to identify activators of signal transducer and activator of transcription 1 (STAT1): luminescence-based cell-based dose response assay to identify cytotoxic compounds.", "assay_type": "functional"}, "Aminopeptidase N": {"target": "T1, Aminopeptidase N (Plasmodium falciparum FcB1/Columbia, UniProt O96935)", "T1 sequence (O96935 whole entry)": "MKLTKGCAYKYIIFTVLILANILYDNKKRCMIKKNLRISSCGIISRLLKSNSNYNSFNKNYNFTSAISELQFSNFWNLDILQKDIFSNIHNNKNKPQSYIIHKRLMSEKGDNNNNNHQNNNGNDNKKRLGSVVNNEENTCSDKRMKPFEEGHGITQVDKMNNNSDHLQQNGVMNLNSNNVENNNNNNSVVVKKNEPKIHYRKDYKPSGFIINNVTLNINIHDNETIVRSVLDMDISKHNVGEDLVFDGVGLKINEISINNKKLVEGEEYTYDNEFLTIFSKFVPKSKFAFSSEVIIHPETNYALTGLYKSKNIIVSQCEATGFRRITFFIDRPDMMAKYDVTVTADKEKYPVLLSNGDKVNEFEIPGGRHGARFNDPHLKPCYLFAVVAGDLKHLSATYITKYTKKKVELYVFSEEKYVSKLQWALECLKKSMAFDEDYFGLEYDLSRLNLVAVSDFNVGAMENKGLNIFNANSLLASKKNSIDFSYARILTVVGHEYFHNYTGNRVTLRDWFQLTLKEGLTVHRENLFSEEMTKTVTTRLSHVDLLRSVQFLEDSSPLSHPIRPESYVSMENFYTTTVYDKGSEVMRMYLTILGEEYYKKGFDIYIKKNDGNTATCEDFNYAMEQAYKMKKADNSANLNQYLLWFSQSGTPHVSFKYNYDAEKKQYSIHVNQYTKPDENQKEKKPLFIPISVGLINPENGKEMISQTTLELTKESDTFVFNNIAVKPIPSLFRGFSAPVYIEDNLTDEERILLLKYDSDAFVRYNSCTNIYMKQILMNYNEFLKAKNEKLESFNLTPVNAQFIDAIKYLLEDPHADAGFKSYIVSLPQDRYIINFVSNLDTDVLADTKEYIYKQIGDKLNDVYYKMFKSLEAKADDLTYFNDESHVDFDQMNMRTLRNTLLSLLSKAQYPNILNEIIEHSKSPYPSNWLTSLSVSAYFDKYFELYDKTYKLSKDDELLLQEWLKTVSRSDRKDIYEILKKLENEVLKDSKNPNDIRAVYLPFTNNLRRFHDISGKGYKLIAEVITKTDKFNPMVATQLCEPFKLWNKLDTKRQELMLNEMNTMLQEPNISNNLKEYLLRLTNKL", "assay": "malaria alanyl aminopeptidase activity blockers – biochemical, fluorogenic H-Leu-NHMec substrate, 1536-well (AID 1445)", "parameters": "species or system Plasmodium falciparum 3D7, 3D7"}, "[2]": {"target": "T2, Zinc finger protein mex-5 (Caenorhabditis elegans, UniProt Q9XUB2)", "T2 sequence (Q9XUB2 whole entry)": "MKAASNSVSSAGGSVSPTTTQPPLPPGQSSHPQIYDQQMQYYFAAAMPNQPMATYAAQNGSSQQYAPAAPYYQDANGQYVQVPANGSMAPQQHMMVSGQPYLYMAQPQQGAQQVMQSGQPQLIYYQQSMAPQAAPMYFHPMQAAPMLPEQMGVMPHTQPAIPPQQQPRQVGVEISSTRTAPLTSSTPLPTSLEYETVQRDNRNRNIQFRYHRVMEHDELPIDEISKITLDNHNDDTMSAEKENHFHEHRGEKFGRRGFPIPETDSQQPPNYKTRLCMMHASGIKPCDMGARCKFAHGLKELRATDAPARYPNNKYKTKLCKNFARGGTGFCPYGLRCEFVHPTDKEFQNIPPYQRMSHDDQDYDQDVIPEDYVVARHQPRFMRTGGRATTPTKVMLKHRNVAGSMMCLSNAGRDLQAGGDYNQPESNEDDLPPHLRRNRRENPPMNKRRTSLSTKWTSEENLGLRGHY", "assay": "potency of MEX-5 RNA-binding blockers – biochemical, C. elegans, fluorescence polarization, dose response (AID 1960)"}, "[3]": {"target": "Eukaryotic translation initiation factor 4E (Mus musculus, UniProt P63073)", "sequence (P63073 whole entry)": "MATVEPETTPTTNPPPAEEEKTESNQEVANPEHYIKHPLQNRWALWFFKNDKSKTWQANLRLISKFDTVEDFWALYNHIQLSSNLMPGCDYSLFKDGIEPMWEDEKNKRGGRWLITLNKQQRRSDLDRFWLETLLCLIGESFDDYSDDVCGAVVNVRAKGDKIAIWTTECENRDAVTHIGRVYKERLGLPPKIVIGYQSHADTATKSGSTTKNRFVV", "assay": "blockers of eIF4G binding by eIF4E – biochemical, TR-FRET, dose response (AID 855);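 note: potency for disrupting eIF4E binding to eIF4GI seen as loss of FRET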", "assay_type": "functional"}, "[4]": {"target": "T3, RNA-binding protein pos-1 (Caenorhabditis elegans, UniProt G5EF15)", "T3 sequence (G5EF15 whole entry)": "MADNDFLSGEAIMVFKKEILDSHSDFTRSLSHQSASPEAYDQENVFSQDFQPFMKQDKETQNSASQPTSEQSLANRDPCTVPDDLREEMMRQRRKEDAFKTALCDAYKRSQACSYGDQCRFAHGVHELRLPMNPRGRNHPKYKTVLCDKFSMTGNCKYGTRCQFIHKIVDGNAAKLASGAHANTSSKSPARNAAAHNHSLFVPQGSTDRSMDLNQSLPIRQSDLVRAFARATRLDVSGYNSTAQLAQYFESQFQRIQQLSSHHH", "assay": "disruptors of C. elegans POS-1 RNA interaction – biochemical, fluorescence polarization, dose response (AID 1964);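 note: purified POS-1 fused to maltose binding protein made in E. coli; potency of compounds blocking POS-1 binding to fluorescent RNA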"}, "[5]": {"target": "Induced myeloid leukemia cell differentiation protein Mcl-1 (Homo sapiens, UniProt Q07820)", "sequence (Q07820 whole entry)": "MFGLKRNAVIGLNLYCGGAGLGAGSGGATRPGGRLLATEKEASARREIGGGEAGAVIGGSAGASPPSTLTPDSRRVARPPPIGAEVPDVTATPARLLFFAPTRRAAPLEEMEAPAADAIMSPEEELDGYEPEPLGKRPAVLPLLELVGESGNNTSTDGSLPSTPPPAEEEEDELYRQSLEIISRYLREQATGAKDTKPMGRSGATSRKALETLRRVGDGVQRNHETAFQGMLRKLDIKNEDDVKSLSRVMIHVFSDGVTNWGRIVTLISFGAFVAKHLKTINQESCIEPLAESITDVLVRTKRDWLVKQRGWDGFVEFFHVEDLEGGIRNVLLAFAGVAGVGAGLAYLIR", "assay_type": "functional"}, "Ephrin type-A receptor 4": {"target": "Ephrin type-A receptor 4 (Mus musculus, UniProt Q03137)", "assay": "EphA4 ligand-binding antagonists – biochemical, colorimetric, mouse EphA4, primary screen (AID 689)", "assay_type": "functional"}, "[6]": {"assay": "Trypanosoma cruzi growth suppression in host cells – NIH3T3 host cells, beta-gal luminescence, confirmation (AID 2044);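 note: intracellular parasites grown in NIH/3T3 mouse fibroblasts as host cells; luminescent beta-galactosidase reporter signal from transgenic T. cruzi replicating inside host cells; inhibitors lower the luminescence signal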", "assay_type": "functional, cell-based"}, "[7]": {"assay": "reduction of Shn3 3'UTR-driven luciferase in osteoblasts – cell-based, Clone20 osteoblasts, firefly luciferase, cherry-picked, dose response (AID 624132)", "assay_type": "functional"}, "[8]": {"assay": "non-specific 3'UTR reporter inhibition in Clone20-Shn3RL – cell-based, Renilla luciferase, cherry-picked, counter-screen for Shn3 inhibitor project, dose response (AID 624133)", "assay_type": "functional"}, "[9]": {"assay": "NIH3T3 cell viability loss – ATP luminescence, mouse fibroblasts, counter-screen, dose response (AID 2010);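 note: cells exposed to compound for about 90 hours before reading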", "assay_type": "functional, cell-based"}, "[10]": {"assay": "HPDE-C7 pancreatic duct cell viability loss – fluorescence, HTS (AID 430)", "assay_type": "functional, cell-based", "conditions": "Homo sapiens"}, "[11]": {"assay": "HEK-293T viability loss after treatment – luminescence, T-cell screen hits, cytotoxicity control for TCR NF-kB inhibitor project, dose response (AID 489026);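 note: cells exposed to compound about 14 hours before the viability readout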", "assay_type": "functional, cell-based"}, "[12]": {"assay": "viability loss of HPDE-C7K cells – cell-based, fluorescence, HTS, primary screen (AID 431)", "assay_type": "functional", "conditions": "Homo sapiens"}, "[13]": {"assay": "Vero E6 cell cytotoxicity, dose response, cytotoxicity control for non-replicating M. tuberculosis project, secondary assay (AID 492998)", "assay_type": "functional, VeroE6", "conditions": "Vero C1008"}, "[14]": {"assay": "viability of PTEN-deleted HCT116 cells – cell-based, HCT116 PTEN knockout, dose response (AID 1047);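 note: HCT116 colon tumor cells with PTEN knocked out; cells exposed to compound for 60 hours before readout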", "assay_type": "functional"}, "[15]": {"assay": "loss of viability in HepG2 cells – cell-based, CellTiter-Glo, cherry-picked, cytotoxicity control for Shn3 inhibitor project, dose response (AID 624134)", "assay_type": "functional"}, "[16]": {"assay": "viability of HCT116 lacking mutant beta-catenin – cell-based, human colon tumor, dose response (AID 1045);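 note: HCT116 colon tumor cells with beta catenin knocked out; cells exposed to compound for 60 hours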", "assay_type": "functional"}, "[17]": {"assay": "THP-1 cell cytotoxicity, dose response, cytotoxicity control for non-replicating M. tuberculosis project (AID 489025)", "assay_type": "functional"}, "[18]": {"target": "Sphingosine 1-phosphate receptor 2 (Homo sapiens, UniProt O95136)", "sequence (O95136 whole entry)": "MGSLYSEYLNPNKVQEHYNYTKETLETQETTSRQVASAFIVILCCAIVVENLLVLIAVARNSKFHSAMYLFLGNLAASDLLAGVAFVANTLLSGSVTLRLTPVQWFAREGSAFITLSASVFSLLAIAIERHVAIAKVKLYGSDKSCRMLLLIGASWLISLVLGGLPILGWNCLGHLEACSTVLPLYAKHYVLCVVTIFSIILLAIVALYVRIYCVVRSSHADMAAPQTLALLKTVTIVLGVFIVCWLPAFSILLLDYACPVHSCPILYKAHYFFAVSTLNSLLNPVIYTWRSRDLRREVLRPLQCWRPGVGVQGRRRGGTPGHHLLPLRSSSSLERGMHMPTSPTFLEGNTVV", "assay": "Dose Response Cell Based Assay for Antagonists of the S1P2 Receptor. [Related pubchem assays: 856, 736 ]", "assay_type": "functional"}, "cells": {"assay": "cells", "assay_type": "functional"}, "[19]": {"target": "Voltage-gated inwardly rectifying potassium channel KCNH2 (Homo sapiens, UniProt Q12809)", "sequence (Q12809 whole entry)": "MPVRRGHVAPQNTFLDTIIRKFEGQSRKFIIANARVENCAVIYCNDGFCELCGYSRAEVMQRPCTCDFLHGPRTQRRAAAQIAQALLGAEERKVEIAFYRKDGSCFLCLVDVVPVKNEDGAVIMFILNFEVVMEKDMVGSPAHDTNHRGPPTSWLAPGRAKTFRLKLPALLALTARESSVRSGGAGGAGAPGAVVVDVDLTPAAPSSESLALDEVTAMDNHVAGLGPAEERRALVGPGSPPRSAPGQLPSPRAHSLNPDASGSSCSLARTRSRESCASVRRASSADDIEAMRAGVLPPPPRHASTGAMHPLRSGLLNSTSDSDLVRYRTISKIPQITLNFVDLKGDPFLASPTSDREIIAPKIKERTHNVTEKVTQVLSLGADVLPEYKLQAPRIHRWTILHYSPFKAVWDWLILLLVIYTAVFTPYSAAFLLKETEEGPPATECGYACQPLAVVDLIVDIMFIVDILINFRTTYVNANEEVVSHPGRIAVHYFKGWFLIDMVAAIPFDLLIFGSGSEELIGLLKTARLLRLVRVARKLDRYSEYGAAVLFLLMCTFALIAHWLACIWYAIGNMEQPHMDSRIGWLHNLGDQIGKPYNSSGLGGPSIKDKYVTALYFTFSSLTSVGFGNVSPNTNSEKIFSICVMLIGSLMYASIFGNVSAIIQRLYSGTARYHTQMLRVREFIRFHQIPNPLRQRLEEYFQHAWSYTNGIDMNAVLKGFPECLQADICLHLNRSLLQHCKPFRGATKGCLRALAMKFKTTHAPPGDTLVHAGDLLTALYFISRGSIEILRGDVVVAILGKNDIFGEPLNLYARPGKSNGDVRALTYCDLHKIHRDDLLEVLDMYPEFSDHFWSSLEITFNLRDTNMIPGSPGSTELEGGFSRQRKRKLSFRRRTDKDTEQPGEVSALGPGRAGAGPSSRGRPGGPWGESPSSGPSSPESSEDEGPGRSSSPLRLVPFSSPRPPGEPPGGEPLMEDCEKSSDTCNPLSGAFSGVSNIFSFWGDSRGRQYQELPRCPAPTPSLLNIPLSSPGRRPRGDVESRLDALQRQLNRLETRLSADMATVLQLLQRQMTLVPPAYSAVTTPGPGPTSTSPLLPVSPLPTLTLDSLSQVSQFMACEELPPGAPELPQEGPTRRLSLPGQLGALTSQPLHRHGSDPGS", "assay": "concentration-dependent hERG rescue from blockers – cell-based, thallium flux, dose response (AID 2121)", "assay_type": "ADME"}, "Vero [20]": {"test_system": "Vero", "assay": "cells", "assay_type": "functional", "conditions": "Chlorocebus sabaeus"}, "Phospholipase A2": {"target": "Phospholipase A2 (Homo sapiens, UniProt P04054)", "assay_type": "functional"}, "Cysteine protease ATG4B": {"target": "Cysteine protease ATG4B (Homo sapiens, UniProt Q9Y4P1)", "assay_type": "functional"}, "Vero [21]": {"test_system": "Vero", "assay": "cells", "assay_type": "functional, cell-based", "conditions": "Chlorocebus sabaeus"}, "[22]": {"target": "Photoreceptor-specific nuclear receptor (Homo sapiens, UniProt Q9Y5X4)", "assay": "ligands suppressing NR2E3 nuclear receptor activity – biochemical, TR-FRET, dose response (AID 463256)", "assay_type": "functional"}, "[23]": {"target": "Peroxisome proliferator-activated receptor gamma/Nuclear receptor corepressor 2 (Homo sapiens, UniProt P37231+Q9Y618)", "sequence (P37231 whole entry)": "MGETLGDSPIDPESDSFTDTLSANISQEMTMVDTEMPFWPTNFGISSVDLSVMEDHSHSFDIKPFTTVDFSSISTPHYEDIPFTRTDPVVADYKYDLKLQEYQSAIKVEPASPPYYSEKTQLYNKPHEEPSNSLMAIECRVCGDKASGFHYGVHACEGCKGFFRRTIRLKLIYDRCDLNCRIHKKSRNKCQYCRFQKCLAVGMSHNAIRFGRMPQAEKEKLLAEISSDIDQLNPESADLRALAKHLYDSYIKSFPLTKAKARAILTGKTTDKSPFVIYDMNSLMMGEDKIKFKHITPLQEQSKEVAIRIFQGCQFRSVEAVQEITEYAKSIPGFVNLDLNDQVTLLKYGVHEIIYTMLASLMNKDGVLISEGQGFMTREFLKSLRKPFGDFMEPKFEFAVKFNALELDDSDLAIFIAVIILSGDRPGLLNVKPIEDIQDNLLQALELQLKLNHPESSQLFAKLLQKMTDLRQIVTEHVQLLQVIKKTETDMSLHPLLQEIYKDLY", "sequence (Q9Y618 whole entry)": "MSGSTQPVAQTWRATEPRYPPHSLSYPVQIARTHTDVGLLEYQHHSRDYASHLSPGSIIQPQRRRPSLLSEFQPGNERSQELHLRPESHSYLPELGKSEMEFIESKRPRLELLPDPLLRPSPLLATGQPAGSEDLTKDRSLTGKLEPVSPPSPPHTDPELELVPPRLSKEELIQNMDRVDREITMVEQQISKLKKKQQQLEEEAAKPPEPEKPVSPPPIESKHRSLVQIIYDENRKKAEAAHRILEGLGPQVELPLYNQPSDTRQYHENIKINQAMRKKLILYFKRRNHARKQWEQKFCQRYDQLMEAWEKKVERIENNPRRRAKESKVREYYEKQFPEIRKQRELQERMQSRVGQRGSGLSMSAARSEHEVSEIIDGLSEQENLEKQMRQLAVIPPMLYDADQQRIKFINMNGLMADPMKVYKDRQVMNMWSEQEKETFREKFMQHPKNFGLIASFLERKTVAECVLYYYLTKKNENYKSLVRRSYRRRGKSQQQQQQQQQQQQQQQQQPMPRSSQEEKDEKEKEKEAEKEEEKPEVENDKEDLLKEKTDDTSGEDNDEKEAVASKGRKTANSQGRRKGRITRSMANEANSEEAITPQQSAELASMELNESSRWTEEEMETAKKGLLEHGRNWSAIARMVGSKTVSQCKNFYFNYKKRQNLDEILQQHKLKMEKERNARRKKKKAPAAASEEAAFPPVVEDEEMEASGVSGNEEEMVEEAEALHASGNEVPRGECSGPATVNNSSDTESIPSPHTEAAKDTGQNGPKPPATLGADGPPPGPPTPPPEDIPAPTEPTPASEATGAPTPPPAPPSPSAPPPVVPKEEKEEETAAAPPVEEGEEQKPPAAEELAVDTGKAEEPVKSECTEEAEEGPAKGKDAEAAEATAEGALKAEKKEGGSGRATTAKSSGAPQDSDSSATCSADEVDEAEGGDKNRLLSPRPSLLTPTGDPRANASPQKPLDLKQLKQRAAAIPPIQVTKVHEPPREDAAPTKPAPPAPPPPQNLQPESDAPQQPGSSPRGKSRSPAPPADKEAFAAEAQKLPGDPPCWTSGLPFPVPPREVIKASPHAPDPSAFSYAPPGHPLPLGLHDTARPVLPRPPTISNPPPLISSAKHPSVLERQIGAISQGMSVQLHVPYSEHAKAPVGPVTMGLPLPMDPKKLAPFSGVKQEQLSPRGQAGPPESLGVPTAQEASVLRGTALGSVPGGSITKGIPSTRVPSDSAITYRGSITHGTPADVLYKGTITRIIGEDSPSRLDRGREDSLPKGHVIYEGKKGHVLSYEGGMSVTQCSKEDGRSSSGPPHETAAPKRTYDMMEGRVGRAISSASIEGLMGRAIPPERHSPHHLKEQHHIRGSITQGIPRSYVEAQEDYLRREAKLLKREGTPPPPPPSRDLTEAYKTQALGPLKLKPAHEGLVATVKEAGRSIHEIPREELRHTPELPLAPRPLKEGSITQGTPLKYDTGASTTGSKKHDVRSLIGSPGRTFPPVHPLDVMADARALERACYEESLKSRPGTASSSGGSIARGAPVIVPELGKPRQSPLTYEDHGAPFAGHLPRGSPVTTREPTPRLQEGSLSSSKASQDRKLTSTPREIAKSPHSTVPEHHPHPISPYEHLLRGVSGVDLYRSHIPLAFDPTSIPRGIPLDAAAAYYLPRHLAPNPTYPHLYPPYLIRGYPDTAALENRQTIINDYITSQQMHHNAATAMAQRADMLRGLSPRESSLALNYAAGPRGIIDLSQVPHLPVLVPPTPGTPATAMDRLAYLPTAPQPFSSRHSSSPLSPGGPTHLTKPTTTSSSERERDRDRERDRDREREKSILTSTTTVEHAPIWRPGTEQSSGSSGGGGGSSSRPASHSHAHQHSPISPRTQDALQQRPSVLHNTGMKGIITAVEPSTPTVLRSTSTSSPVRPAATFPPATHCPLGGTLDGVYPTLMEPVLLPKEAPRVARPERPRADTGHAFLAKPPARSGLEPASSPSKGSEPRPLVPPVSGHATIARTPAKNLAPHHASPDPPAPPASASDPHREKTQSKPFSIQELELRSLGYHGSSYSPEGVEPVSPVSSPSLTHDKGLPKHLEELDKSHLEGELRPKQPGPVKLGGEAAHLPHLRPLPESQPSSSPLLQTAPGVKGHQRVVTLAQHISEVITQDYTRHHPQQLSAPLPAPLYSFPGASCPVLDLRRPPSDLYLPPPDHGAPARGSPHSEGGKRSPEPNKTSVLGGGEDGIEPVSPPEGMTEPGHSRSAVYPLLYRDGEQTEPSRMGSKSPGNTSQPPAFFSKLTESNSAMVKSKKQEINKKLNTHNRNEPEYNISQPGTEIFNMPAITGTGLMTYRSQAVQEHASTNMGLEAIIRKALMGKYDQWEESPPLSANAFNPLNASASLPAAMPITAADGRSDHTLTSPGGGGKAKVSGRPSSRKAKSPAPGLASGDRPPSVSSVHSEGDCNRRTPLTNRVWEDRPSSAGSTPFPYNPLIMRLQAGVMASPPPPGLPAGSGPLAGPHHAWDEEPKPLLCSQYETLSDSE", "assay": "Counterscreen for NR2E3 inverse agonists: TR-FRET-based biochemical high throughput dose response assay to identify inverse agonists of the interaction between peroxisome proliferator-activated receptor gamma (PPARg) and nuclear receptor co-repressor 2 (NCOR2).", "assay_type": "functional"}},
  "note": "Active and inactive are the calls of the source.",
  "data": [
    {"compound": "CCOC(=O)/C(C#N)=C/c1cc(C)n(-c2ccccc2)c1C", "values": [
      {"measurement": "IC50", "setting": "[1]", "value": "> 55.7 µM (not active)"}
    ]},
    {"compound": "CCOC(=O)c1cc(-c2ccc(/C=C3/C(=O)NC(=O)C(C#N)=C3C)o2)ccc1Cl", "values": [
      {"measurement": "IC50", "setting": "Aminopeptidase N", "value": "80.1 µM (active)"},
      {"measurement": "EC50", "setting": "[2]", "value": "17.4 µM (active)"},
      {"measurement": "IC50", "setting": "[3]", "value": "23.4 µM (active)"},
      {"measurement": "EC50", "setting": "[4]", "value": "19.9 µM (active)"},
      {"measurement": "IC50", "setting": "[5]", "value": "0.752 µM (active)"},
      {"measurement": "IC50", "setting": "Ephrin type-A receptor 4", "value": "2.53 µM (active)"}
    ]},
    {"compound": "O=S1(=O)C=C(Sc2nc3cc(Cl)ccc3o2)c2ccccc21", "values": [
      {"measurement": "EC50", "setting": "[6]", "value": "0.818 µM (active)"},
      {"measurement": "AC50", "setting": "[7]", "value": "< 0.26 µM (active)"},
      {"measurement": "AC50", "setting": "[8]", "value": "4.15 µM (active)"},
      {"measurement": "EC50", "setting": "[9]", "value": "1.58 µM (active)"},
      {"measurement": "EC50", "setting": "[10]", "value": "4.03 µM (active)"},
      {"measurement": "IC50", "setting": "[11]", "value": "54.3 µM (inactive)"},
      {"measurement": "EC50", "setting": "[12]", "value": "9.45 µM (active)"},
      {"measurement": "CC50", "setting": "[13]", "value": "5.94 µM (active)"},
      {"measurement": "EC50", "setting": "[14]", "value": "4.03 µM (active)"},
      {"measurement": "AC50", "setting": "[15]", "value": "18.4 µM (active)"},
      {"measurement": "EC50", "setting": "[16]", "value": "3.65 µM (active)"},
      {"measurement": "CC50", "setting": "[17]", "value": "8.54 µM (active)"},
      {"measurement": "IC50", "setting": "[18]", "value": "3.47 µM (active)"},
      {"measurement": "IC50", "setting": "cells", "value": "1.57 µM (active)"}
    ]},
    {"compound": "Cc1ccc(C(=O)CC(=O)c2cc(Cl)ccc2O)cc1", "values": [
      {"measurement": "EC50", "setting": "[19]", "value": "3.02 µM (active)"},
      {"measurement": "CC50", "setting": "Vero [20]", "value": "22.3 µM (active)"},
      {"measurement": "IC50", "setting": "Phospholipase A2", "value": "8 µM (active)"},
      {"measurement": "IC50", "setting": "Cysteine protease ATG4B", "value": "11.1 µM (active)"},
      {"measurement": "IC50", "setting": "Vero [21]", "value": "23.8 µM (active)"}
    ]},
    {"compound": "Cn1c(SCC(=O)c2ccc3c(c2)Cc2ccccc2-3)nnc1-c1ccccc1", "values": [
      {"measurement": "IC50", "setting": "[22]", "value": "3.82 µM (active)"},
      {"measurement": "IC50", "setting": "[23]", "value": "4.12 µM (active)"}
    ]}
  ]
}
